The structures appear in SMILES notation.

Regarding `COC(=O)/C=C/c1ccc(S(=O)(=O)Cl)cc1`, the melting point (in general, the temperature of the solid-liquid transition) lay in the range of 112 to 114 °C. The value for `CC(NC(N)=S)c1ccccc1` (stereo not drawn) was 94 to 96 °C; that for `COc1c(C=O)c(C)nn1C` was 55 to 57 °C; that for `Nc1cc(O)cc(F)c1` was 159 to 161 °C. `NCC(O)c1ccc2ccccc2c1` (stereo not drawn): the melting point lay within 115 to 117 °C. The value for `CNC(=O)CCCl` was 63 to 65 °C; that for `O=S(=O)(F)CC1CCOCC1` was 53 to 55 °C; that for `O=C(CCl)N1CCOC1=O` was 53 to 55 °C. `Clc1ccccc1Nc1nc2ccccc2s1` registered a melting point of 126 to 128 °C. The value for `CC1CN(S(=O)(=O)c2cccc(C(=O)O)c2)CC(C)O1` (stereo not drawn) was 188 to 190 °C; that for `O=C(O)c1c[nH]c2cc(F)ccc12` was 228 to 230 °C; that for `Cc1c[nH]c(=O)n1-c1cccc(N)c1` was 232 to 234 °C. Turning to `O=C(O)c1c(Cl)nc2ccccc2c1Cl`, the melting point is 167 to 169 °C. As for `Nc1ccc(Cl)cc1C(=O)Nc1ccncc1`, the melting point fell in the range of 169 to 171 °C.

In turn, `CC(Cc1ccc(C(F)(F)F)cc1)C(=O)O` (stereo not drawn) had a melting point of 68 to 70 °C.

Turning to `O=C(O)CCCn1nnc(-c2ccccc2)n1`, the melting point fell in the range of 83 to 85 °C. As for `CC(C)OCCS(=O)(=O)NCC(=O)O`, the melting point is 63 to 65 °C. In turn, `CS(=O)(=O)CCS(=O)(=O)Cl` registered a melting point of 119 to 121 °C. `CC(C)n1c(Cl)nnc1-c1ccccc1` showed a melting point of 129 to 131 °C. In the case of `COC(=O)c1c(C)[nH]c(C(=O)CCl)c1C`, the melting point lay in the range of 166 to 168 °C. As for `O=[N+]([O-])c1ccc2oc(S)nc2c1`, the figure is 241 to 243 °C. The value for `CC(C)CC1(C)NC(=O)NC1=O` (stereo not drawn) was 145 to 147 °C. For the compound `O=C(O)c1cc(S(=O)(=O)N2CCCC2)ccc1Br`, the melting point lay in the range of 216 to 218 °C. The value for `C=CCn1c(N)c(C#N)sc1=S` was 174 to 176 °C. As for `CS(=O)(=O)Cc1noc(C(Cl)(Cl)Cl)n1`, the figure is 110 to 112 °C. As for `OCc1c[nH]c2ccc(Br)cc12`, the figure is 112 to 114 °C; as for `CN(C)S(=O)(=O)c1ccc(Cl)nc1`, 117 to 119 °C. Consider `CC(=O)c1ccc(Oc2ccc(C(=O)O)cc2)cc1`, for which the melting point lay in the range of 161 to 163 °C.

Compound `Cc1ccc(-n2c(=O)c(N)c(C)n2C)cc1` yielded a melting point of 261 to 263 °C. As for `COc1cccc(C(=O)NN2C(=O)CSC2=S)c1`, the figure is 156 to 158 °C; as for `Nc1ccccc1Cc1ccccc1`, 55 to 57 °C. The value for `NCCc1cc2ccccc2[nH]1` was 95 to 97 °C. On to `O=C(O)c1cccc(Oc2ccc(Cl)c(Cl)c2)n1`, for which the melting point was in the range of 138 to 140 °C. The compound `O=C1CN(C(=O)CCl)c2ccccc2N1` gave a melting point of 114 to 119 °C. As for `CCOC(=O)c1sc2ccsc2c1CBr`, the figure is 98 to 100 °C. As for `CCOc1ccc(Br)cc1S(=O)(=O)Cl`, the figure is 109 to 111 °C; as for `CC(C)(C)OC(=O)NC(C(=O)O)c1ccccc1` (stereo not drawn), 113 to 115 °C. The value for `O=C(O)c1noc(-c2cc(F)ccc2F)n1` was 119 to 121 °C.

`N#Cc1c(Cl)nsc1Cl` yielded a melting point of 64 to 66 °C.

Compound `O=C1Nc2c(I)cccc2C1=O` returned a melting point of 200 to 202 °C.

`O=C(O)Cc1ccc2c(c1)OCCO2` yielded a melting point of 54 to 56 °C. The value for `O=C(O)c1cc(-c2ccc(Cl)s2)[nH]n1` was 231 to 233 °C; that for `Cc1n[nH]c(C)c1S(=O)(=O)Cl` was 60 to 65 °C; that for `Cc1cc(NC(=O)C(C)Cl)on1` (stereo not drawn) was 78 to 80 °C. The value for `NNC(=O)NCc1ccc(Cl)cc1` was 163 to 165 °C. The compound `N#Cc1cccc(OC2CCNCC2)c1` had a melting point of 52 to 54 °C. The value for `O=C1Nc2cc(OC(F)(F)F)ccc2C1=O` was 183 to 185 °C.

In the case of `CN(CC(=O)O)S(N)(=O)=O`, the melting point lay in the range of 94 to 96 °C. As for `O=C(O)CCOc1ccc(Oc2ccccc2)cc1`, the figure is 118 to 120 °C. The value for `CCc1sc(C(=O)O)cc1C` was 98 to 100 °C; that for `N#Cc1cccc(-n2ccnc2)c1` was 161 to 163 °C. `O=C(c1ccc(Br)cc1)C1CCOCC1` came in with a melting point of 99 to 101 °C. Turning to `Nc1cc(F)c(N2CCCC2)c(F)c1`, the melting point is 94 to 96 °C. The value for `Cc1cccc(NC(=O)C=NO)c1C` was 110 to 112 °C; that for `Oc1ccc2nc[nH]c2c1` was 215 to 217 °C; that for `CCOc1ccc(C(CN)c2c[nH]c3ccccc23)cc1OC` (stereo not drawn) was 114 to 116 °C. For `COC(=O)CCCOc1ccccc1F`, the melting point lay in the range of 29 to 31 °C.

In turn, `O=C(Nc1cccc(Br)n1)c1ccccc1` registered a melting point of 84 to 86 °C. The value for `Nc1cc(Cl)ccc1Sc1ccccc1` was 62 to 64 °C. Turning to `Nc1ccc2c(ccn2CC(=O)N2CCOCC2)c1`, the melting point was in the range of 209 to 211 °C. Take `CC(NC(=O)OC(C)(C)C)C(=O)Cc1ccccc1` (stereo not drawn): the melting point was in the range of 59 to 61 °C.

In turn, `O=C1NCc2ccc(F)cc21` showed a melting point of 203 to 205 °C.

For the compound `Cc1nccn1-c1ccc(C(F)(F)F)cc1N`, the melting point was 183 to 185 °C. The value for `CC(C)OC(=O)c1cccc(-c2nn[nH]n2)c1` was 155 to 159 °C. `CC(C)Oc1ccc(S(=O)(=O)Cl)cc1Cl`: the melting point was 95 to 97 °C. The value for `CN(C)S(=O)(=O)c1ccc(S(=O)(=O)Cl)cc1` was 134 to 136 °C. As for `Cc1cc(C)cc(-n2ncc(C=O)n2)c1`, the melting point was in the range of 64 to 66 °C. The value for `O=C(O)Cc1csc(NC(=O)c2cccs2)n1` was 194 to 196 °C; that for `CCNC(=O)c1ccc(F)cc1Br` was 103 to 105 °C.

In turn, `O=C(O)c1cc(S(=O)(=O)Cl)c(F)cc1Cl` yielded a melting point of 144 to 146 °C. Turning to `O=C(Cc1cccc(F)c1)c1ccc(Cl)c(Cl)c1`, the melting point is 121 to 123 °C. `N#Cc1ccc(S(=O)(=O)NCC2CCCO2)cc1` (stereo not drawn): the melting point fell in the range of 123 to 125 °C. With `COc1ccc2ccc(O)cc2c1`, the melting point lay in the range of 116 to 119 °C. Take `O=C(O)Cc1cccc2sccc12`: the melting point is 127 to 129 °C. As for `Nc1ncc(Br)cc1S(=O)(=O)Cl`, the figure is 129 to 131 °C. As for `O=C1OCc2c1cccc2S(=O)(=O)Cl`, the figure is 124 to 126 °C; as for `O=C(O)c1cccn2cc(CN3CCCC3)nc12`, 264 to 266 °C; as for `Oc1cc(C2CC2)ncn1`, 188 to 190 °C. `O=C(O)c1cc(-c2ccccc2)c(N2CCOCC2)s1` showed a melting point of 172 to 174 °C.

`CC(C)c1nn(-c2ccc(Br)cc2)cc1C=O` displayed a melting point of 99 to 101 °C.

With `Nc1nc2ccccc2n1-c1ccccc1`, the melting point is 148 to 150 °C. In turn, `NS(=O)(=O)N1CCc2ccccc2C1` showed a melting point of 159 to 161 °C.

For `c1cncc(NCc2ccsc2)c1`, the melting point was in the range of 62 to 64 °C. Take `CC(Br)C(=O)C12CC3CC(CC(C3)C1)C2` (stereo not drawn): the melting point lay in the range of 86 to 88 °C. Turning to `O=C(O)C1CCCN(c2nc3ccccc3s2)C1` (stereo not drawn), the melting point is 166 to 168 °C. For `CC1(C)NC(=O)N(CC(=O)O)C1=O`, the melting point was 167 to 169 °C. The value for `CC1(c2ccc(F)cc2Cl)NC(=O)NC1=O` (stereo not drawn) was 214 to 216 °C; that for `CNc1ncccc1C(N)=O` was 181 to 183 °C.

As for `COC(=O)Cc1ccc([N+](=O)[O-])s1`, the melting point is 50 to 52 °C. As for `CN(C(=O)c1ccc(Cl)c(N)c1)c1ccccc1`, the figure is 120 to 122 °C; as for `O=C(O)CCCc1ccc(Br)s1`, 54 to 58 °C. The value for `CC(C(=O)O)N1C(=O)C2CC=CCC2C1=O` (stereo not drawn) was 123 to 125 °C; that for `O=C(NC1CCN(C(=O)CCl)CC1)c1ccccc1` was 155 to 157 °C; that for `N#Cc1ccc(CC(N)=O)cc1` was 191 to 193 °C. As for `COC(=O)C1CCc2[nH]ncc2C1` (stereo not drawn), the figure is 79 to 81 °C; as for `COC(=O)c1ccc(S(=O)(=O)Cl)c(Cl)c1`, 64 to 66 °C. For the compound `Cc1cc(-c2noc(CCC(=O)O)n2)ccc1F`, the melting point lay within 124 to 126 °C.

Compound `Cc1cc(C)c(NC(=O)CCl)c(C)c1` showed a melting point of 153 to 157 °C.

As to `O=C(c1ccc(Br)cc1)c1cccnc1`, the melting point lay in the range of 124 to 126 °C. Consider `COC(=O)C(=O)Nc1ccc(C)cc1`, for which the melting point fell in the range of 147 to 149 °C.

As to `O=C(O)C(Sc1ccc(F)cc1)c1ccccc1` (stereo not drawn), the melting point lay in the range of 84 to 86 °C. `O=C(O)C(Br)C12CC3CC(CC(C3)C1)C2` (stereo not drawn) had a melting point of 162 to 166 °C. `COC(=O)c1c(Cl)c([N+](=O)[O-])cc([N+](=O)[O-])c1Cl` came in with a melting point of 97 to 99 °C. The value for `O=C1Nc2c(F)cc(Cl)cc2C1=O` was 219 to 221 °C. The value for `CSc1nn(-c2ccccc2)c(N)c1C#N` was 135 to 137 °C; that for `O=C(O)Cc1ccc(NS(=O)(=O)c2ccc(F)cc2)cc1` was 180 to 182 °C. For the compound `O=C(O)C(=O)c1ccc(Br)cc1`, the melting point lay in the range of 105 to 107 °C. As for `CCN(CC)C(=O)N1CCCC(C(=O)O)C1` (stereo not drawn), the melting point was 94 to 96 °C. As for `O=CNc1cccc(O)c1`, the figure is 115 to 117 °C; as for `CC(=O)Nc1ccc(F)c(C(=O)O)c1`, 259 to 261 °C. As for `Fc1ccc(Oc2ccc(Cl)nn2)c(F)c1`, the figure is 113 to 115 °C. As for `CSc1ncc(C(N)=O)c(N)n1`, the figure is 250 to 252 °C; as for `COc1ccc(C(N)=O)cc1F`, 169 to 171 °C. Regarding `COC(C)c1nc(C(=O)O)cs1` (stereo not drawn), the melting point is 73 to 75 °C. In turn, `CC(C)CC(C(=O)O)N1CCCCC1=O` (stereo not drawn) yielded a melting point of 182 to 184 °C.

With `Cc1cc(C)c2nc(Cl)cc(C)c2c1`, the melting point is 128 to 132 °C. The value for `Cc1ccc(N)cc1-n1nnnc1C` was 139 to 141 °C; that for `CC(C)NC(=O)NC(C)C` was 191 to 193 °C; that for `CS(=O)(=O)c1cccc(Cl)c1C(N)=O` was 200 to 202 °C. For `CNS(=O)(=O)c1cccc(S(=O)(=O)Cl)c1`, the melting point is 98 to 100 °C.

As for `CC(C)C(=O)N1CCC(C(=O)O)CC1`, the melting point lay in the range of 102 to 104 °C. The value for `COC(=O)c1cnc[nH]1` was 154 to 156 °C. The value for `COc1ccc(N2C(=O)C=CC2=O)cn1` was 122 to 124 °C.

The record behind these values is a melting point compilation (Tetko et al.).
